Source: article PMC2850272 (Bioorganic & medicinal chemistry, 2010)

Details: pH 7.4

Substance | Permeability (PAMPA)
2-(Benzo[d][1,3]dioxol-5-yl)-3-(ethoxymethyl)-5-methoxyquinoline [30b] | 2796±1746 10^−6 cm/s
2-(Benzo[d][1,3]dioxol-5-yl)-4-chloro-3-(ethoxymethyl)-7-methoxyquinoline [28a] | 802±370 10^−6 cm/s
Ethyl 2-(benzo[d][1,3]dioxol-5-yl)-5-methoxy-4-(methylamino)quinoline-3-carboxylate [25b] | 1240±154 10^−6 cm/s
Ethyl 2-(benzo[d][1,3]dioxol-5-yl)-7-methoxy-4-(methylamino)quinoline-3-carboxylate [25a] | 2013±179 10^−6 cm/s
